Reference: paper PMC6270614 (Molecules, 2013)
Like-named read-outs stand apart in the source and are kept apart here.

Key:
CB1 receptor = conditions: cited from earlier work
CB2 [1] = molecular target: CB2; design: method as in PMID 21885167; conditions: Figure 1; cited from earlier work
[2] = molecular target: human cannabinoid CB1 receptor (Homo sapiens, UniProt P21554); assay: CB1 receptor radioligand ([3H]CP-55,940) displacement binding assay; conditions: for inhibition at 1 µM: read-out: displacement of [3H]CP-55,940 in the preliminary screen (printed in the CB1 Ki column)
human cannabinoid CB1 receptor, sequence (P21554 whole entry): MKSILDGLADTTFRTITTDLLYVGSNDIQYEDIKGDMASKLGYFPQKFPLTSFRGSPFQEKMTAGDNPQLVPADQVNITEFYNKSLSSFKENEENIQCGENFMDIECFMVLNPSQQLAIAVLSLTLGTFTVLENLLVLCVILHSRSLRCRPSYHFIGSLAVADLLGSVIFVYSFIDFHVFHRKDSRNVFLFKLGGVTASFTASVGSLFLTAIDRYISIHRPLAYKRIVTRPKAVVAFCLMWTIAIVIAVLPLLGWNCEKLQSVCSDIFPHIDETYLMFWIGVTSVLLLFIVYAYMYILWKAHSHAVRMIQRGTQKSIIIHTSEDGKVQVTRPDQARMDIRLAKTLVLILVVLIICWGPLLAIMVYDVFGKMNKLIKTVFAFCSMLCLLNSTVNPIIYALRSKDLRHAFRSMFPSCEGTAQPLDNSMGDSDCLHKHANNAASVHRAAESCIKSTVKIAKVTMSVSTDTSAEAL
Description: In all cases, Ki values were calculated by applying the Cheng-Prusoff equation [34] to the IC50 values (obtained by GraphPad, GraphPad Software, Inc., La Jolla, CA, USA) for the displacement of the bound radioligand by increasing concentrations of the test compounds (after three separate experiments for each compound).

CB1 [3] = tested on: CB1; design: method as in PMID 21420860; conditions: Figure 1; read-out: IC50 cAMP (CB1); cited from earlier work
CB2 [4] = tested on: CB2; design: method as in PMID 21420860; conditions: Figure 1; read-out: IC50 cAMP (CB2); cited from earlier work
CB1 [5] = tested on: CB1; design: method as in PMID 21669533; conditions: Figure 1; cited from earlier work
CB2 [6] = tested on: CB2; design: method as in PMID 21669533; conditions: Figure 1; cited from earlier work
[7] = CB1 (Ki, nM), displacement of 0.5 nM [3H]CP-55,940, means ± SEM, n = 3, Cheng-Prusoff from IC50
[8] = Experimental activity (pIC50, M), CoMFA training and test set input
[9] = IC50 (CB1 displacement), displacement of [3H]CP-55,940
[10] = CoMFA training and test set input, read-out: Experimental activity (pIC50) (converted)

For `CCCCCn1c(C)c(C(=O)c2ccccc2I)c2ccccc21` [AM679], the Ki (CB1 receptor; non-selective CB1 and CB2 agonist) is given as 13.5 nM.
For `CCCCCn1c(C)c(C(=O)c2cccc3ccccc23)c2cccnc21` [Abbott], the “pKi (CB1)” value (CB1 receptor; Figure 1) is given as 7.9 and the “pKi (CB2)” value (CB2 [1]) is given as 7.3.
With `c1ccc(-c2nc3ccccc3n2Cc2cccc3ccccc23)nc1` [Compound 33, 1-(Naphthalen-1-ylmethyl)-2-(pyridin-2-yl)-1H-benzo[d]imidazole] the inhibition at 1 µM [2] was < 50% and the melting point was 150.7 to 151.6 °C.
In the case of `Fc1ccc2c(c1)nc(-c1ccccn1)n2Cc1cccc2ccccc12` [Compound 34, 5-Fluoro-1-(naphthalen-1-ylmethyl)-2-(pyridin-2-yl)-1H-benzo[d]imidazole], the inhibition at 1 µM [2] is reported as < 50% and the melting point is reported as 155.7 to 155.9 °C.
In the case of `Fc1ccc2nc(-c3ccccn3)n(Cc3cccc4ccccc34)c2c1` [Compound 35, 6-Fluoro-1-(naphthalen-1-ylmethyl)-2-(pyridin-2-yl)-1H-benzo[d]imidazole], the inhibition at 1 µM [2] is reported as < 50% and the melting point is reported as 160.7 to 161.1 °C.
With `Cc1cc2nc(-c3ccccn3)n(Cc3cccc4ccccc34)c2cc1C` [Compound 36, 5,6-Dimethyl-1-(naphthalen-1-ylmethyl)-2-(pyridin-2-yl)-1H-benzo[d]imidazole] the Ki [2, 7] was 13 ± 1.1 nM, the IC50 [2, 8] was 23.9 nM and the IC50 [2, 9] was ~20 nM. For the same compound, the melting point was 155.5 to 156.1 °C.
For `c1cncc(-c2nc3ccccc3n2Cc2cccc3ccccc23)c1` [Compound 37, 1-(Naphthalen-1-ylmethyl)-2-(pyridin-3-yl)-1H-benzo[d]imidazole], the Ki [2, 7] was 75.9 ± 16.6 nM, the IC50 [2, 8] was 139 nM and the melting point was 160.2 to 161.1 °C.
Compound `Fc1ccc2c(c1)nc(-c1cccnc1)n2Cc1cccc2ccccc12` [Compound 38, 5-Fluoro-1-(naphthalen-1-ylmethyl)-2-(pyridin-3-yl)-1H-benzo[d]imidazole] has a Ki [2, 7] of 98.2 ± 33.5 nM, an IC50 [2, 8] of 180 nM and a melting point of 163.4 to 163.9 °C.
For `Fc1ccc2nc(-c3cccnc3)n(Cc3cccc4ccccc34)c2c1` [Compound 39, 6-Fluoro-1-(naphthalen-1-ylmethyl)-2-(pyridin-3-yl)-1H-benzo[d]imidazole], the Ki [2, 7] was < 200 nM, the IC50 [2, 8] was 0.979 nM and the IC50 [2, 9] was < 10 nM. It also gave a Ki ([2]; read-out: CB1 (Ki), displacement of 0.5 nM [3H]CP-55,940, means ± SEM, n = 3, Cheng-Prusoff from IC50) of 0.53 ± 0.9 nM and a melting point of 156.1 to 157 °C.
For `Cc1cc2nc(-c3cccnc3)n(Cc3cccc4ccccc34)c2cc1C` [Compound 40, 5,6-Dimethyl-1-(naphthalen-1-ylmethyl)-2-(pyridin-3-yl)-1H-benzo[d]imidazole], the inhibition at 1 µM [2] was < 50% and the melting point was 141.4 to 142.1 °C.
For `c1ccc2c(Cn3c(-c4ccncc4)nc4ccccc43)cccc2c1` [Compound 41, 1-(Naphthalen-1-ylmethyl)-2-(pyridin-4-yl)-1H-benzo[d]imidazole], the IC50 [2, 10] was 274 nM, the Ki ([2]; read-out: CB1 (Ki)) was 149 ± 1.9 nM and the melting point was 163.3 to 163.8 °C.
For `Fc1ccc2c(c1)nc(-c1ccncc1)n2Cc1cccc2ccccc12` [Compound 42, 5-Fluoro-1-(naphthalen-1-ylmethyl)-2-(pyridin-4-yl)-1H-benzo[d]imidazole], the inhibition at 1 µM [2] was < 50% and the melting point was 151.5 to 152.5 °C.
With `Fc1ccc2nc(-c3ccncc3)n(Cc3cccc4ccccc34)c2c1` [Compound 43, 6-Fluoro-1-(naphthalen-1-ylmethyl)-2-(pyridin-4-yl)-1H-benzo[d]imidazole] the IC50 [2, 10] was 1120 nM, the Ki ([2]; read-out: CB1 (Ki)) was 614 ± 54.7 nM and the melting point was 167.4 to 168.1 °C.
For `Cc1cc2nc(-c3ccncc3)n(Cc3cccc4ccccc34)c2cc1C` [Compound 44, 5,6-Dimethyl-1-(naphthalen-1-ylmethyl)-2-(pyridin-4-yl)-1H-benzo[d]imidazole], the Ki [2, 7] was 4.84 ± 2 nM, the IC50 [2, 8] was 8.87 nM and the IC50 [2, 9] was < 10 nM. The melting point was 156.8 to 157.6 °C.
With `c1ccc(-c2nc3ccccc3n2Cc2ccc3ccccc3c2)nc1` [Compound 45, 1-(Naphthalen-2-ylmethyl)-2-(pyridin-2-yl)-1H-benzo[d]imidazole] the Ki [2, 7] was 31.8 ± 12 nM, the IC50 [2, 8] was 58.3 nM and the melting point was 150.7 to 151.8 °C.
For `Fc1ccc2c(c1)nc(-c1ccccn1)n2Cc1ccc2ccccc2c1` [Compound 46, 5-Fluoro-1-(naphthalen-2-ylmethyl)-2-(pyridin-2-yl)-1H-benzo[d]imidazole], the inhibition at 1 µM [2] was < 50% and the melting point was 165.7 to 166.4 °C.
With `Fc1ccc2nc(-c3ccccn3)n(Cc3ccc4ccccc4c3)c2c1` [Compound 47, 6-Fluoro-1-(naphthalen-2-ylmethyl)-2-(pyridin-2-yl)-1H-benzo[d]imidazole] the inhibition at 1 µM [2] was < 50% and the melting point was 170.5 to 171.3 °C.
With `c1cncc(-c2nc3ccccc3n2Cc2ccc3ccccc3c2)c1` [Compound 49, 1-(Naphthalen-2-ylmethyl)-2-(pyridin-3-yl)-1H-benzo[d]imidazole] the IC50 [2, 10] was 3380 nM, the Ki ([2]; read-out: CB1 (Ki)) was 1840 ± 79.8 nM and the melting point was 146.3 to 147 °C.
With `Fc1ccc2c(c1)nc(-c1cccnc1)n2Cc1ccc2ccccc2c1` [Compound 50, 5-Fluoro-1-(naphthalen-2-ylmethyl)-2-(pyridin-3-yl)-1H-benzo[d]imidazole] the IC50 [2, 10] was 600 nM, the Ki ([2]; read-out: CB1 (Ki)) was 327 ± 60 nM and the melting point was 175.7 to 176.8 °C.
`Cc1cc2nc(-c3cccnc3)n(Cc3ccc4ccccc4c3)c2cc1C` [Compound 52, 5,6-Dimethyl-1-(naphthalen-2-ylmethyl)-2-(pyridin-3-yl)-1H-benzo[d]imidazole] gave a Ki [2, 7] of 140 ± 10.1 nM, an IC50 [2, 8] of 256 nM and a melting point of 138.5 to 139.5 °C.
`Fc1ccc2c(c1)nc(-c1ccncc1)n2Cc1ccc2ccccc2c1` [Compound 54, 5-Fluoro-1-(naphthalen-2-ylmethyl)-2-(pyridin-4-yl)-1H-benzo[d]imidazole] gave a Ki [2, 7] of 44.4 ± 5.5 nM, an IC50 [2, 8] of 81.5 nM and a melting point of 177.8 to 178.5 °C.
Work on `Fc1ccc2nc(-c3ccncc3)n(Cc3ccc4ccccc4c3)c2c1` [Compound 55, 6-Fluoro-1-(naphthalen-2-ylmethyl)-2-(pyridin-4-yl)-1H-benzo[d]imidazole] yielded an IC50 [2, 10] of 1040 nM, a Ki ([2]; read-out: CB1 (Ki)) of 567 ± 7 nM and a melting point of 163.5 to 164.1 °C.
Compound `Cc1cc2nc(-c3ccncc3)n(Cc3ccc4ccccc4c3)c2cc1C` [Compound 56, 5,6-Dimethyl-1-(naphthalen-2-ylmethyl)-2-(pyridin-4-yl)-1H-benzo[d]imidazole] has an IC50 [2, 10] of 442 nM, a Ki ([2]; read-out: CB1 (Ki)) of 241 ± 10 nM and a melting point of 133.7 to 134.5 °C.
In the case of `O=C(c1cccc(Cl)c1Cl)c1nc(CN2CCC(F)(F)CC2)c2ccccn12` [Merck], the IC50 (CB1 [3]) is listed as 90 nM and the IC50 (CB2 [4]) is listed as 0.3 nM.
For `CCS(=O)(=O)c1ccc2c(c1)nc(C(C)(C)C)n2C[C@@H]1CCCO1` [Pfizer], the EC50 (CB1 [5]) is listed as > 10000 nM and the EC50 (CB2 [6]) is listed as 11.7 nM.
